In ChEMBL document CHEMBL1681747, “Novel second generation analogs of eribulin. Part II: Orally available and active against resistant tumors in vivo” (Bioorg Med Chem Lett, 2011):

Tests used:
DLD-1 = assay: Cytotoxicity against human DLD1 cells; assay type: functional, cell-based
HCT-15 = assay: Cytotoxicity against human HCT15 cells; assay type: functional, cell-based
[1] = Cytotoxicity against human MES-SA cells; assay type: functional, cell-based
[2] = Cytotoxicity against human MES-SA/Dx5-Rx1 cells; assay type: functional, cell-based
MES-SA = assay: Fold resistant ratio of IC50 for MES-SA/Dx5-Rx1 cells to IC50 for human MES-SA cells

Row | SMILES | IC50 (DLD-1) [pM] | IC50 (HCT-15) [pM] | IC50 [1] [pM] | IC50 [2] [pM] | Ratio IC50 (MES-SA)
1 | C#CCN(C)C[C@H](C[C@H]1O[C@H]2C[C@H]3O[C@@H](CC[C@@H]4O[C@@H](CC[C@@]56C[C@H]7O[C@H]8[C@@H](O5)[C@H]5O[C@H](CC[C@@H]5O[C@H]8[C@H]7O6)CC(=O)C[C@@H]2[C@H]1OC)CC4=C)C[C@@H](C)C3=C)OC | 310 | 190 | – | – | –
2 | C=CCN(C)C[C@H](C[C@H]1O[C@H]2C[C@H]3O[C@@H](CC[C@@H]4O[C@@H](CC[C@@]56C[C@H]7O[C@H]8[C@@H](O5)[C@H]5O[C@H](CC[C@@H]5O[C@H]8[C@H]7O6)CC(=O)C[C@@H]2[C@H]1OC)CC4=C)C[C@@H](C)C3=C)OC | 230 | 220 | 70 | 1950 | 29.4
3 | C=C1C[C@@H]2CC[C@@]34C[C@H]5O[C@H]6[C@@H](O3)[C@H]3O[C@H](CC[C@@H]3O[C@H]6[C@H]5O4)CC(=O)C[C@@H]3[C@@H](OC)[C@@H](CCN4CCOCC4)O[C@H]3C[C@H]3O[C@@H](CC[C@@H]1O2)C[C@@H](C)C3=C | 230 | 160 | – | – | –
4 | C=C1C[C@@H]2CC[C@@]34C[C@H]5O[C@H]6[C@@H](O3)[C@H]3O[C@H](CC[C@@H]3O[C@H]6[C@H]5O4)CC(=O)C[C@@H]3[C@@H](OC)[C@@H](C[C@@H](CNCC(=O)OCCCC)OC)O[C@H]3C[C@H]3O[C@@H](CC[C@@H]1O2)C[C@@H](C)C3=C | 580 | 370 | 280 | 1600 | 5.83
5 | C=C1C[C@@H]2CC[C@@]34C[C@H]5O[C@H]6[C@@H](O3)[C@H]3O[C@H](CC[C@@H]3O[C@H]6[C@H]5O4)CC(=O)C[C@@H]3[C@@H](OC)[C@@H](C[C@@H](CN4CCN(C(F)(F)F)CC4)OC)O[C@H]3C[C@H]3O[C@@H](CC[C@@H]1O2)C[C@@H](C)C3=C | 170 | 150 | 140 | 830 | 6.03
6 | C=C1C[C@@H]2CC[C@@]34C[C@H]5O[C@H]6[C@@H](O3)[C@H]3O[C@H](CC[C@@H]3O[C@H]6[C@H]5O4)CC(=O)C[C@@H]3[C@@H](OC)[C@@H](C[C@@H](CN(C)c4ncccn4)OC)O[C@H]3C[C@H]3O[C@@H](CC[C@@H]1O2)C[C@@H](C)C3=C | 6900 | 5400 | 2170 | 10100 | 4.66
7 | C=C1C[C@@H]2CC[C@@]34C[C@H]5O[C@H]6[C@@H](O3)[C@H]3O[C@H](CC[C@@H]3O[C@H]6[C@H]5O4)CC(=O)C[C@@H]3[C@@H](OC)[C@@H](C[C@H](O)CN4CCOCC4)O[C@H]3C[C@H]3O[C@@H](CC[C@@H]1O2)C[C@@H](C)C3=C | 310 | 360 | 150 | 7260 | 49.82
8 | C=C(C)CN(CC)CC[C@H]1O[C@H]2C[C@H]3O[C@@H](CC[C@@H]4O[C@@H](CC[C@@]56C[C@H]7O[C@H]8[C@@H](O5)[C@H]5O[C@H](CC[C@@H]5O[C@H]8[C@H]7O6)CC(=O)C[C@@H]2[C@H]1OC)CC4=C)C[C@@H](C)C3=C | 610 | 460 | – | – | –
9 | C=C1C[C@@H]2CC[C@@]34C[C@H]5O[C@H]6[C@@H](O3)[C@H]3O[C@H](CC[C@@H]3O[C@H]6[C@H]5O4)CC(=O)C[C@@H]3[C@@H](OC)[C@@H](C[C@@H](CN4CCN(C(=O)OCC)CC4)OC)O[C@H]3C[C@H]3O[C@@H](CC[C@@H]1O2)C[C@@H](C)C3=C | – | – | 80 | 3050 | 38.1
10 | C=C1C[C@@H]2CC[C@@]34C[C@H]5O[C@H]6[C@@H](O3)[C@H]3O[C@H](CC[C@@H]3O[C@H]6[C@H]5O4)CC(=O)C[C@@H]3[C@@H](OC)[C@@H](CCN)O[C@H]3C[C@H]3O[C@@H](CC[C@@H]1O2)C[C@@H](C)C3=C | 4670 | 8570 | 170 | 47600 | 288.17
11 | C=C1C[C@@H]2CC[C@@]34C[C@H]5O[C@H]6[C@@H](O3)[C@H]3O[C@H](CC[C@@H]3O[C@H]6[C@H]5O4)CC(=O)C[C@@H]3[C@@H](OC)[C@@H](C[C@@H](CN4C[C@@H]4C)OC)O[C@H]3C[C@H]3O[C@@H](CC[C@@H]1O2)C[C@@H](C)C3=C (stereo partly drawn) | 470 | 670 | 130 | 2230 | 18.26
12 | C=CCN(CC=C)CC[C@H]1O[C@H]2C[C@H]3O[C@@H](CC[C@@H]4O[C@@H](CC[C@@]56C[C@H]7O[C@H]8[C@@H](O5)[C@H]5O[C@H](CC[C@@H]5O[C@H]8[C@H]7O6)CC(=O)C[C@@H]2[C@H]1OC)CC4=C)C[C@@H](C)C3=C | 310 | 210 | 170 | 1150 | 6.57
13 | C=C1C[C@@H]2CC[C@@]34C[C@H]5O[C@H]6[C@@H](O3)[C@H]3O[C@H](CC[C@@H]3O[C@H]6[C@H]5O4)CC(=O)C[C@@H]3[C@@H](OC)[C@@H](C[C@@H](CN4C[C@H]4C)OC)O[C@H]3C[C@H]3O[C@@H](CC[C@@H]1O2)C[C@@H](C)C3=C (stereo partly drawn) | 530 | 780 | 160 | 2790 | 18.04
14 | C=C1C[C@@H]2CC[C@@]34C[C@H]5O[C@H]6[C@@H](O3)[C@H]3O[C@H](CC[C@@H]3O[C@H]6[C@H]5O4)CC(=O)C[C@@H]3[C@@H](OC)[C@@H](CCN4CCC(C(F)(F)F)CC4)O[C@H]3C[C@H]3O[C@@H](CC[C@@H]1O2)C[C@@H](C)C3=C | 220 | 140 | – | – | –
15 | C=C1C[C@@H]2CC[C@@]34C[C@H]5O[C@H]6[C@@H](O3)[C@H]3O[C@H](CC[C@@H]3O[C@H]6[C@H]5O4)CC(=O)C[C@@H]3[C@@H](OC)[C@@H](C[C@@H](CN4CC4C)OC)O[C@H]3C[C@H]3O[C@@H](CC[C@@H]1O2)C[C@@H](C)C3=C (stereo partly drawn) | 290 | 400 | 130 | 2550 | 19.91
16 | C#CCN(CC#C)C[C@H](C[C@H]1O[C@H]2C[C@H]3O[C@@H](CC[C@@H]4O[C@@H](CC[C@@]56C[C@H]7O[C@H]8[C@@H](O5)[C@H]5O[C@H](CC[C@@H]5O[C@H]8[C@H]7O6)CC(=O)C[C@@H]2[C@H]1OC)CC4=C)C[C@@H](C)C3=C)OC | 280 | 170 | 130 | 530 | 3.99
17 | C#CCN(CC#C)CC[C@H]1O[C@H]2C[C@H]3O[C@@H](CC[C@@H]4O[C@@H](CC[C@@]56C[C@H]7O[C@H]8[C@@H](O5)[C@H]5O[C@H](CC[C@@H]5O[C@H]8[C@H]7O6)CC(=O)C[C@@H]2[C@H]1OC)CC4=C)C[C@@H](C)C3=C | 1420 | 890 | 690 | 3990 | 5.65
18 | C=CCN(CC=C)C[C@H](C[C@H]1O[C@H]2C[C@H]3O[C@@H](CC[C@@H]4O[C@@H](CC[C@@]56C[C@H]7O[C@H]8[C@@H](O5)[C@H]5O[C@H](CC[C@@H]5O[C@H]8[C@H]7O6)CC(=O)C[C@@H]2[C@H]1OC)CC4=C)C[C@@H](C)C3=C)OC | 440 | 270 | 170 | 1010 | 6.26
19 | C=C1C[C@@H]2CC[C@@]34C[C@H]5O[C@H]6[C@@H](O3)[C@H]3O[C@H](CC[C@@H]3O[C@H]6[C@H]5O4)CC(=O)C[C@@H]3[C@@H](OC)[C@@H](C[C@@H](CN4CCN(S(=O)(=O)c5ccc(C)cc5)CC4)OC)O[C@H]3C[C@H]3O[C@@H](CC[C@@H]1O2)C[C@@H](C)C3=C | 990 | 620 | 3160 | 39100 | 12.35
20 | C=C(C)CN(CC)C[C@H](C[C@H]1O[C@H]2C[C@H]3O[C@@H](CC[C@@H]4O[C@@H](CC[C@@]56C[C@H]7O[C@H]8[C@@H](O5)[C@H]5O[C@H](CC[C@@H]5O[C@H]8[C@H]7O6)CC(=O)C[C@@H]2[C@H]1OC)CC4=C)C[C@@H](C)C3=C)OC | 510 | 340 | – | – | –
